What was measured:
stage II colon cancer = assay: Tumor recurrence in stage II colon cancer patients treated with 5-FU based adjuvant chemotherapy; type: in vivo, human
Experimental: Methods: Blood specimens from 107 patients (median age of 60 years; range: 22-86) were obtained at the University of Southern California medical facilities. All patients were diagnosed with high-risk, lymph node negative, stage II colon cancer and were uniformly treated with 5-FU based adjuvant chemotherapy. The median follow-up was 4.8 years (range: 0.3-16.8). […] Genomic DNA was extracted from peripheral blood and genotypes were determined using PCR-RFLP.

[1] = test system: metastatic adenocarcinoma of the colon or rectum; settings: individuals with serum LDH more than 1.5 times the upper limit of normal; interim data; cited from earlier work

SMILES	Probability ± SE of 3-year recurrence (stage II colon cancer)	Median time to recurrence (TTR) (95% CI) (stage II colon cancer; by adjuvant therapy)	clinical benefit when PTK/ZK was added to FOLFOX4, compared to FOLFOX4 plus placebo [1]
O=c1[nH]cc(F)c(=O)[nH]1 [5-FU, Fluorouracil]	0.29 ± 0.06	9.4 (4.8, 16.8+) yrs	–
Clc1ccc(Nc2nnc(Cc3ccncc3)c3ccccc23)cc1.O=C(O)CCC(=O)O [PTK/ZK, 1-[4-Chloroanilino]-4-[4-pyridylmethyl]phthalazine Succinate]	–	–	greater clinical benefit
